The values below come from patent publication US20230087118A1, “IMIDAZO[1,2-a][sequence] DERIVATIVES AND THEIR USE IN THE TREATMENT OF DISEASE” (priority 2019, published 2023).

Structures are written as SMILES. Structures can show the parent of a compound that is named as a salt.

The first test concerns the target T1, IRAK4 (Homo sapiens, UniProt Q9NWZ3).
T1 sequence (Q9NWZ3 1-460): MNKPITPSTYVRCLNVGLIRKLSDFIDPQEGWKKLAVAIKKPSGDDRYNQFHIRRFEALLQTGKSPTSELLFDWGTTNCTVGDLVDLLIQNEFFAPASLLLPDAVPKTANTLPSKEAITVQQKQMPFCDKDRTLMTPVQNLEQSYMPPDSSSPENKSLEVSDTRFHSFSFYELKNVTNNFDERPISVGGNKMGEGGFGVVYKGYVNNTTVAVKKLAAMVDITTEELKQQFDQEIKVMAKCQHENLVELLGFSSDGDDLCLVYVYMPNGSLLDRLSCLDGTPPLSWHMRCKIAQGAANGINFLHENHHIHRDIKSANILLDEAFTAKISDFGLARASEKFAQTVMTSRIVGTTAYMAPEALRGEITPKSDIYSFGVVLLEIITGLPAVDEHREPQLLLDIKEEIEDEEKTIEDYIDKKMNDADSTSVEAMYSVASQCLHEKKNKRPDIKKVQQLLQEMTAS
Nature of the test: biochemical.
Settings: not given
In the case of `CC12CCC(c3cn4cc(C(=O)Nc5cccc(C(F)F)n5)cc(OC(F)F)c4n3)(CO1)C2` (centres unmarked) [Example 251], the IC50 (in general, the concentration that gives 50% inhibition) is 0.0153 µM.

As for `CC(C)Oc1cc2nc(C34COC(C)(C3)C4)cn2cc1C(=O)Nc1cccc(C(F)(F)F)n1` [Example 245], it took 0.0003 µM to reach half-maximal inhibition (IC50).

Compound `CC(C)Oc1nc2nc([C@]34CC[C@](C)(C3)OC4)cn2cc1C(=O)Nc1cccn(C)c1=O` (single isomer, unassigned) [Example 653] gave an IC50 of 0.0011 µM.

`C[C@@]12CC[C@@](c3cn4cc(C(=O)Nc5cccc(C(F)F)n5)nc(OC5CCC5)c4n3)(CO1)C2` (single isomer, unassigned) [Example 626] displayed an IC50 of 0.0006 µM.

The compound `O=C(Nc1cccc(C(F)F)n1)c1cn2cc(C3CCOCC3)nc2cn1` [Example 83] yielded an IC50 of 0.264 µM.

With `Cn1ccc(NC(=O)c2cn3cc(C45CCC(C)(C4)OC5)nc3cc2OC2CCCC2)n1` (centres unmarked) [Example 632, 7-(Cyclopentyloxy)-N-(1-methyl-1H-pyrazol-3-yl)-2-(1-methyl-2-oxabicyclo[2.2.1]heptan-4-yl)imidazo[1,2-a]pyridine-6-carboxamide], half-maximal inhibition (IC50) required 0.0018 µM.

For `CCOc1nc(C(=O)Nc2cccc(C3CC3)n2)cn2cc(C34COC(C)(C3)C4)nc12` [Example 493, N-(6-cyclopropylpyridin-2-yl)-8-ethoxy-2-(1-methyl-2-oxabicyclo[2.1.1]hexan-4-yl)imidazo[1,2-a]pyrazine-6-carboxamide], the IC50 was 0.0032 µM.

Compound `CC(C)Oc1nc2nc(C34CCC(C)(C3)OC4)cn2cc1C(=O)Nc1cccc(C(F)F)n1` (centres unmarked) [Example 247] gave an IC50 of 0.0002 µM.

As to `CC(C)(C)c1cn2cc(C(=O)Nc3cccc(C(F)F)n3)c(OC3CCC3)cc2n1` [Example 267, 2-(tert-Butyl)-7-cyclobutoxy-N-(6-(difluoromethyl)pyridin-2-yl)imidazo[1,2-a]pyridine-6-carboxamide], inhibition was half-maximal at 0.002 µM (IC50).

For the compound `COc1cccc(NC(=O)c2cn3cc(C4CCOCC4)nc3cc2OC(C)C)n1` [Example 93, 7-isopropoxy-N-(6-methoxypyridin-2-yl)-2-(tetrahydro-2H-pyran-4-yl)imidazo[1,2-a]pyridine-6-carboxamide], 0.0002 µM corresponded to half-maximal inhibition (IC50).

`Cc1cnc2c(NC(=O)c3cn4cc(C56COC(C)(C5)C6)nc4cc3OC3CCCC3)cnn2c1` [Example 568, 7-(Cyclopentyloxy)-2-(1-methyl-2-oxabicyclo[2.1.1]hexan-4-yl)-N-(6-methylpyrazolo[1,5-a]pyrimidin-3-yl)imidazo[1,2-a]pyridine-6-carboxamide] showed an IC50 of 0.0002 µM.

`COc1ncccc1NC(=O)c1cn2cc(C34COC(C)(C3)C4)nc2c(OC(C)C)n1` [Example 337, 8-Isopropoxy-N-(2-methoxypyridin-3-yl)-2-(1-methyl-2-oxabicyclo[2.1.1]hexan-4-yl)imidazo[1,2-a]pyrazine-6-carboxamide] yielded an IC50 of 0.0004 µM.

`CC(C)Oc1nc2nc(C34COC(C)(C3)C4)cn2cc1C(=O)Nc1cccn(C(F)F)c1=O` [Example 388, N-(1-(difluoromethyl)-2-oxo-1,2-dihydropyridin-3-yl)-7-isopropoxy-2-(1-methyl-2-oxabicyclo[2.1.1]hexan-4-yl)imidazo[1,2-a]pyrimidine-6-carboxamide] yielded an IC50 of 0.0002 µM.

For `CC12CC(c3cn4cc(C(=O)Nc5cccn(C(F)F)c5=O)c(OCCOC(F)F)cc4n3)(CO1)C2` [Example 446, 7-(2-(Difluoromethoxy)ethoxy)-N-(1-(difluoromethyl)-2-oxo-1,2-dihydropyridin-3-yl)-2-(1-methyl-2-oxabicyclo[2.1.1]hexan-4-yl)imidazo[1,2-a]pyridine-6-carboxamide], inhibition was half-maximal at 0.0046 µM (IC50).

`C[C@@H](Oc1cc2nc(C34COC(C)(C3)C4)cn2cc1C(=O)Nc1cccc(C(F)F)n1)C(F)(F)F` (single isomer, unassigned) [Example 618] registered an IC50 of 0.0006 µM.

For `COc1cc2nc(C3CCOCC3)cn2cc1C(=O)Nc1csnc1C` [Example 108], the IC50 came out at 0.0669 µM.

As for `CCOc1cc2nc(C(F)F)cn2cc1C(=O)Nc1cccc(C(F)F)n1` [Example 95, 2-(Difluoromethyl)-N-(6-(difluoromethyl)pyridin-2-yl)-7-ethoxyimidazo[1,2-a]pyridine-6-carboxamide], the IC50 amounted to 0.0005 µM.

With `CC(C)Oc1cc2nc([C@]34CC[C@](C)(C3)OC4)cn2cc1C(=O)Nc1cccn(C)c1=O` (single isomer, unassigned) [Example 621], the IC50 was 0.0014 µM.

For `CC(C)Oc1cc(C(=O)Nc2cccc(C(F)F)n2)cn2cc(C3CCCOC3)nc12` (centres unmarked) [Example 394, N-(6-(difluoromethyl)pyridin-2-yl)-8-isopropoxy-2-(tetrahydro-2H-pyran-3-yl)imidazo[1,2-a]pyridine-6-carboxamide], the IC50 is 0.0057 µM.

`CC(C)Oc1nc(C(=O)Nc2ccn(C)n2)cn2cc([C@@]34CC[C@@](C)(C3)OC4)nc12` (single isomer, unassigned) [Example 592] came in with an IC50 of 0.0034 µM.

As for `CC(C)Oc1nc2nc([C@@]34CC[C@@](C)(C3)OC4)cn2cc1C(=O)Nc1cnn2cc(F)cnc12` (single isomer, unassigned) [Example 630], the IC50 amounted to 0.0003 µM.

As for `COCc1nc2nc(C34COC(C)(C3)C4)cn2cc1C(=O)Nc1cnn2cc(C)cnc12` [Example 352, 7-(Methoxymethyl)-2-(1-methyl-2-oxabicyclo[2.1.1]hexan-4-yl)-N-(6-methylpyrazolo[1,5-a]pyrimidin-3-yl)imidazo[1,2-a]pyrimidine-6-carboxamide], inhibition was half-maximal at 6.53 µM (IC50).

Turning to `CCC(C)Oc1nc2nc(C34COC(C)(C3)C4)cn2cc1C(=O)Nc1cnn2cc(C)cnc12` (single isomer, unassigned) [Example 642], the half-maximal inhibitory concentration (IC50) stood at 0.0013 µM.

As to `CC(C)Oc1nc2nc(C34CCC(C)(CC3)OC4)cn2cc1C(=O)Nc1cc(F)n(C)n1` [Example 382, N-(5-fluoro-1-methyl-1H-pyrazol-3-yl)-7-isopropoxy-2-(1-methyl-2-oxabicyclo[2.2.2]octan-4-yl)imidazo[1,2-a]pyrimidine-6-carboxamide], half-maximal inhibition (IC50) required 0.0046 µM.

`CCOc1cc(C(=O)Nc2cccc(C(F)F)n2)cn2cc(C3CCCOC3)nc12` (centres unmarked) [Example 52, N-(6-(difluoromethyl)pyridin-2-yl)-8-ethoxy-2-(tetrahydro-2H-pyran-3-yl)imidazo[1,2-a]pyridine-6-carboxamide] registered an IC50 of 0.0075 µM.

`CCOc1nc(C(=O)Nc2cccnc2OC)cn2cc([C@@H]3CCOC3)nc12` (single isomer, unassigned) [Example 599]: the IC50 was 0.0056 µM.

Consider `CC(C)Oc1cc2nc(C34CCC(C3)OC4)cn2cc1C(=O)Nc1cnn2cccnc12` (centres unmarked) [Example 416, 2-(2-Oxabicyclo[2.2.1]heptan-4-yl)-7-isopropoxy-N-(pyrazolo[1,5-a]pyrimidin-3-yl)imidazo[1,2-a]pyridine-6-carboxamide], for which the IC50 turned out to be 0.0006 µM.

As to `CCc1c(NC(=O)c2cn3cc(C4CCOCC4)nc3cc2OC)cnn1C` [Example 199], the IC50 stood at 0.181 µM.

The compound `CC12CCC(c3cn4cc(C(=O)Nc5cccn(C(F)F)c5=O)c(OC5CCC5)cc4n3)(CO1)C2` (centres unmarked) [Example 538, 7-Cyclobutoxy-N-(1-(difluoromethyl)-2-oxo-1,2-dihydropyridin-3-yl)-2-(1-methyl-2-oxabicyclo[2.2.1]heptan-4-yl)imidazo[1,2-a]pyridine-6-carboxamide] returned an IC50 of 0.0003 µM.

Staying with this test, now noted: IRAK4 Biochemical Assay (1 mM ATP, 2 h) IC50 (μM), 1 mM ATP, 2 h, 100 pM IRAK4.
Take `CC(C)Oc1cc2nc(C34COC(C)(C3)C4)cn2cc1C(=O)Nc1cnc2cccnn12` [Example 321, N-(imidazo[1,2-b]pyridazin-3-yl)-7-isopropoxy-2-(1-methyl-2-oxabicyclo[2.1.1]hexan-4-yl)imidazo[1,2-a]pyridine-6-carboxamide 2,2,2-trifluoroacetate]: the IC50 was 0.0003 µM.

For the compound `CCOc1cc2nc(C3CCOCC3)cn2cc1C(=O)Nc1cccc(C2CCOC2)n1` (centres unmarked) [Example 391, 7-Ethoxy-2-(tetrahydro-2H-pyran-4-yl)-N-(6-(tetrahydrofuran-3-yl)pyridin-2-yl)imidazo[1,2-a]pyridine-6-carboxamide hydrochloride], half-maximal inhibition (IC50) required 0.0034 µM.

For the compound `CC(C)Oc1nc2nc(C34COC(C)(C3)C4)cn2cc1C(=O)Nc1cccc(C2CCOC2)n1` (centres unmarked) [Example 359, 7-Isopropoxy-2-(1-methyl-2-oxabicyclo[2.1.1]hexan-4-yl)-N-(6-(tetrahydro-furan-3-yl)pyridin-2-yl)imidazo[1,2-a]pyrimidine-6-carboxamide trifluoroacetate], the midpoint of inhibition, the IC50, lay at 0.0009 µM.

For `CC12CC(c3cn4cc(C(=O)Nc5cccc(C(F)F)n5)c(OC(F)F)cc4n3)(CO1)C2` [Example 333, 7-(Difluoromethoxy)-N-(6-(difluoromethyl)pyridin-2-yl)-2-(1-methyl-2-oxabicyclo[2.1.1]hexan-4-yl)imidazo[1,2-a]pyridine-6-carboxamide trifluoroacetate], the IC50 turned out to be 0.0052 µM.

The compound `CC(C)Oc1nc2nc(C34COC(C)(C3)C4)cn2cc1C(=O)Nc1cccc2c1ncn2C` [Example 379, 7-Isopropoxy-N-(1-methyl-1H-benzo[d]imidazol-4-yl)-2-(1-methyl-2-oxabicyclo[2.1.1]hexan-4-yl)imidazo[1,2-a]pyrimidine-6-carboxamide trifluoroacetate] came in with an IC50 of 0.001 µM.

The compound `O=C(Nc1cccc(C(F)F)n1)c1cn2cc(C3CC3)nc2cc1OC1CC(C(F)F)C1` (centres unmarked) [Example 477, 2-Cyclopropyl-7-(3-(difluoromethyl)cyclobutoxy)-N-(6-(difluoromethyl)pyridin-2-yl)imidazo[1,2-a]pyridine-6-carboxamide] registered an IC50 of 0.0011 µM.
